Reference: patent US12409112B2, “Pressurized nanoemulsion” (Biofrontera Bioscience GmbH, priority 2023, dated 2025)

Legend:
[1] = ALA content over storage time in BF200 with PX=2%; type: physicochemical; details: BF200 with PX=2% and 3% ALA
Procedure: Nanoemulsion formulations BF200 PX=2% glass and BF200 PX=2% foam were prepared as described in Example 5. The nanoemulsion formulations were stored at 25° C. and 2-8° C. The content of ALA was determined at 0 (starting point) and various time points during the 36 months storage period.

[2] = cited from earlier work
[3] = room temperature; cited from earlier work
[4] = TC content over storage time in BF220 with PX=4%; type: physicochemical; details: BF220 with PX=4% and 0.1% TC
Procedure: Nanoemulsion formulations BF220 TC=0.1% glass and BF220 TC=0.1% foam were prepared as described in Example 6. The nanoemulsion formulations were stored at 2-8° C. The content of TC was determined at 0 (starting point) and various time points during the 36 months storage period.

Row | SMILES | Preservation of API content, pressurized cans versus conventional storing units (glass vials) ([1]; 25° C. and 2-8° C., all conditions) | ALA content ([1]; after 36 months storage at 2-25° C.) | octanol-water partition coefficient (log P) [2] | Stability in aqueous formulations [3] | Preservation of API content, pressurized cans versus conventional storing units (glass vials) ([4]; 2-8° C.) | TC content ([4]; after 36 months storage at 2-8° C.)
1 | NCC(=O)CCC(=O)O [ALA, 5-aminolevulinic acid] | better | at least 90% |  |  |  | 
2 | C=CC[C@@H]1/C=C(\C)C[C@H](C)C[C@H](OC)[C@H]2O[C@@](O)(C(=O)C(=O)N3CCCC[C@H]3C(=O)O[C@H](/C(C)=C/[C@@H]3CC[C@@H](O)[C@H](OC)C3)[C@H](C)[C@@H](O)CC1=O)[C@H](C)C[C@@H]2OC [TC, Tacrolimus] |  |  | > 3 | approx. 90 days | better | at least 90%
